Kd data for one compound are collected here from paper PMC4582037, “Binding interaction of a novel fluorophore with serum albumins: steady state fluorescence perturbation and molecular modeling analysis” (SpringerPlus, 2015).

One may read the Kd as a measure of binding affinity in units of concentration. A higher Kd goes with a looser complex.

In experiment [1] the target is T1, bovine serum albumin (BSA) (Bos taurus, UniProt P02769).
T1 construct: gene ALB
Nature of the experiment: fluorescence anisotropy titration of compound […]) with protein, Langmuir isotherm fit. Type of experiment: binding. On the technique in general: In fluorescence polarisation assays a small probe gives low polarisation when free and higher when bound to something large.

Experiment [2] deals with T2, human serum albumin (HSA) (Homo sapiens, UniProt P02768).
T2 construct: gene ALB
Described as above. Type of experiment: binding.

T1 sequence (P02769 25-607): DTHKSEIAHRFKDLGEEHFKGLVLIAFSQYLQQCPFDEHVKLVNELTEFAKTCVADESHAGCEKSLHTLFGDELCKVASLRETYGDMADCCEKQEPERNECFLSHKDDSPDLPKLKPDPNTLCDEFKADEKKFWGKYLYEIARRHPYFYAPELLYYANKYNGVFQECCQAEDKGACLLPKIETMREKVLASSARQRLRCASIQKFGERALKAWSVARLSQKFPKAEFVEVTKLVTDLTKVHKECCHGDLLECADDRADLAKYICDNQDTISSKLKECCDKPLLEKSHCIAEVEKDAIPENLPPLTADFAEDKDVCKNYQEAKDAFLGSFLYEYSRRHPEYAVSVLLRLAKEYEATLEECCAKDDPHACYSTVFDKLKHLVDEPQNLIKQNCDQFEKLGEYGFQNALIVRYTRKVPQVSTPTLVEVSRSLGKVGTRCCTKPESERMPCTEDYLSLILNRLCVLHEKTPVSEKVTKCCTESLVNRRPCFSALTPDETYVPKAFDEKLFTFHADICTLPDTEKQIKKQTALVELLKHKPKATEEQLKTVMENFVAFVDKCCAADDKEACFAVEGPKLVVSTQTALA
T2 sequence (P02768 25-609): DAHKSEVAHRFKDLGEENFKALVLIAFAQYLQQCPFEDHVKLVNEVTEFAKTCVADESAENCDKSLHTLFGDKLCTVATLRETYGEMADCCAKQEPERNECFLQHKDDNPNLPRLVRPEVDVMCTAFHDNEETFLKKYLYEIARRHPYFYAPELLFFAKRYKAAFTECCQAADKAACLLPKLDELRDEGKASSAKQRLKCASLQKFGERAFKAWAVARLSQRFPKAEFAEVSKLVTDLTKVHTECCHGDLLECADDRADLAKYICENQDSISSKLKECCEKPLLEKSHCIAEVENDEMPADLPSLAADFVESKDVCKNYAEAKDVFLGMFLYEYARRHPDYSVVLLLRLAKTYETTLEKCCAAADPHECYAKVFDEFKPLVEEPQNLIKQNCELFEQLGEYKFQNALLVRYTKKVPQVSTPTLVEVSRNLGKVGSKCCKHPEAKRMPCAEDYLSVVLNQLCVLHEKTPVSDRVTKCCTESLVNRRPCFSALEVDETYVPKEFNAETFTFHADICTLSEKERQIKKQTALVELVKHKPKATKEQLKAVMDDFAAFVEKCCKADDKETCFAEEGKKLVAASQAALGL

As for `COC(=O)CCNC(=O)c1ccc2cc(N(CC(=O)OC(C)(C)C)c3ccc(OC)cc3)ccc2c1` [compound 5, methyl 3-[(6-{[2-(tert-butoxy)-2-oxoethyl] (4-methoxyphenyl)amino}naphthalen-2-yl)formamido]propanoate], the figures for the dissociation constant (Kd) in experiment [1] and in experiment [2] were 1.93 µM and 2.05 µM, respectively.
